Experimental data reported in US8889711B2, “Pyrazolopyridine derivatives as anticancer agent” (Pierre Fabre Medicament, priority 2009, dated 2014).

Assays:
ALK kinase = ALK kinase (Homo sapiens, UniProt Q9UM73); assay: Test to measure ALK kinase inhibition (GST-PLCγ1 substrate, anti-phosphotyrosine ELISA, luminescence); assay type: biochemical; settings: ALK kinase 180 ng/ml, 250 μM ATP, 30 minutes at 30° C.
Protocol: Test to Measure ALK Kinase Inhibition
A ViewPlate (Packard) is incubated with the GST-PLCγ1 substrate (purified recombinant form) at 0.1 mg/ml in phosphate buffer (PBS pH 7.4)(100 μl/well) for one hour under shaking. The plate is then saturated with a blocking solution containing 5% bovine serum albumin (BSA) (SIGMA) in PBS buffer pH 7.4.
After adding the inhibitor at the desired final concentration (usual range of 30 μM to 10 nM), the reaction is conducted by adding the ALK kinase at 180 ng/ml in 13 mM Tris reaction buffer pH 7.5 (SIGMA); 6.5 mM MgCl2 (MERCK); 0.65 mM DiThioThreitol (DTT) (ACROS); 39 mM sodium β-glycerophosphate (TCI); 0.65 mM sodium orthovanadate (SIGMA) and 250 μM ATP (SIGMA). Incubation is carried out for 30 minutes at 30° C. under shaking.
After three washings under shaking in 0.1% PBS/Tween-20 buffer (SIGMA), an anti-phosphotyrosine antibody coupled with HRP (UBI) diluted to 1/1000th in PBS/BSA buffer 5 mg/ml, is incubated for one hour under shaking. After three further washings in 0.1% PBS/Tween-20, the wells are incubated two minutes with 100 μl of SuperSignal ELISA mixture (PIERCE).
The signal is read in luminescent mode using a luminometer (MOLECULAR DEVICES SpectraMax M5e).

karpas 299 cells = assay: Measurement of inhibition of cell proliferation (Karpas), ATPlite; assay type: cell-based
Protocol: Measurement of Inhibition of Cell Proliferation (Karpas):
The antiproliferative activities of the compounds were measured using the ATPlite technique (Perkin Elmer).
The non-adhering cells (karpas 299) are seeded in 96-well plates (300 000 cells/ml) on Day 1 at a concentration compatible with logarithmic growth for 72 hours required for evaluation of the compounds. All the cells are treated on Day 1, then placed in an incubator at 37° C. under 5% CO2 atmosphere. Cell viability is evaluated on Day 4 by assay of released ATP, characteristic of viable cells. The IC50 values are determined by non-linear regression on the basis of a sigmoid model of dose/response relationship, Hill's slope coefficient being left variable, performed using GraphPad software sequence with the supplied algorithm.

Sequence of ALK kinase (Q9UM73 19-1620): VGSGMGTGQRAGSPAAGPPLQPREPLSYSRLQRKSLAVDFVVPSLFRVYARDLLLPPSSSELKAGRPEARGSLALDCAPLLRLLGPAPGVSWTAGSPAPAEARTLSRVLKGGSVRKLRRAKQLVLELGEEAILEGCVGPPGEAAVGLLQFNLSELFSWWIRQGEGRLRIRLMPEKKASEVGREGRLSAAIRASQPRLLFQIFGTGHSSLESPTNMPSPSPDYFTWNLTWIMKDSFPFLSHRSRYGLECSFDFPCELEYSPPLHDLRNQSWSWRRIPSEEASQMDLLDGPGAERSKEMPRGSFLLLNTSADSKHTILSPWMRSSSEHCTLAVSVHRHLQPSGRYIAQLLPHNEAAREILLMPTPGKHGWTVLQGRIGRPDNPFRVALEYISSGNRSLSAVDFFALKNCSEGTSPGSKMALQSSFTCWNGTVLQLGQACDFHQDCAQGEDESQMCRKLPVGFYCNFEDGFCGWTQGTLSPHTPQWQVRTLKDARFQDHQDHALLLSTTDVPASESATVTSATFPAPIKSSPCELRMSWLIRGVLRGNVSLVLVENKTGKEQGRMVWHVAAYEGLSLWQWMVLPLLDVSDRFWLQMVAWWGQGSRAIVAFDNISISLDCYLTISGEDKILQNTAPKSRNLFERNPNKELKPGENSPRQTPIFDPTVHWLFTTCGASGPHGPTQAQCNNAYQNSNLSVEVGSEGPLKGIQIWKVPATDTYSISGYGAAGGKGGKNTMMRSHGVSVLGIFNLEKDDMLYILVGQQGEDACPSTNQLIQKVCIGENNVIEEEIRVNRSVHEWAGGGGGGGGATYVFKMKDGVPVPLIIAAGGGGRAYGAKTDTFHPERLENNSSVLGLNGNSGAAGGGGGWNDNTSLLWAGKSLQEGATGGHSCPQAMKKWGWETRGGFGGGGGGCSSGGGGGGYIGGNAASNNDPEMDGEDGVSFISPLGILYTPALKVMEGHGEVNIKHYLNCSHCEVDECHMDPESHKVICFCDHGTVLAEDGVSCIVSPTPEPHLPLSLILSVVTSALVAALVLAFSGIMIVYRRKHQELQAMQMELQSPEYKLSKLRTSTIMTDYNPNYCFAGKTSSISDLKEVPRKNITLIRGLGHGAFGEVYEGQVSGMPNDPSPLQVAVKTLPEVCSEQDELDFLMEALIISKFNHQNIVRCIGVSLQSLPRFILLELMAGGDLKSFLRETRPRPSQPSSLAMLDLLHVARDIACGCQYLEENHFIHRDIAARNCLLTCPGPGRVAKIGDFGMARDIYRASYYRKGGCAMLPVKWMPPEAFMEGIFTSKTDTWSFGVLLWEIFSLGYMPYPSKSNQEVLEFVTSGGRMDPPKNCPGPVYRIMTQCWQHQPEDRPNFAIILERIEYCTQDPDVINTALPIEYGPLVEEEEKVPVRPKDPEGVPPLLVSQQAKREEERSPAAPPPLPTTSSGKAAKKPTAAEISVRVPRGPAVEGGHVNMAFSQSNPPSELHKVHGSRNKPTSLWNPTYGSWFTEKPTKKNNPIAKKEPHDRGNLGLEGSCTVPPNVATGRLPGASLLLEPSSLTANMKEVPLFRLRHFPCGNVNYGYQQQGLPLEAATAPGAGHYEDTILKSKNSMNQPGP

SMILES	IC50 (ALK kinase)	IC50 (karpas 299 cells; Homo sapiens, KARPAS-299, 72 h)	IC50 (karpas 299 cells; 72 hours)
N#Cc1c(-c2ccc(O)c(Cl)c2)nc2[nH]nc(N)c2c1-c1ccc(N2CCNCC2)cc1 [Compound 192]	< 100 nM	1000 to 10000 nM	
N#Cc1c(-c2ccc(O)cc2F)nc2[nH]nc(N)c2c1-c1ccc(N2CCNCC2)c(F)c1 [Compound 193]	< 100 nM	1000 to 10000 nM	
CN(C)CCCOc1ccc(-c2c(C#N)c(-c3ccc(O)cc3F)nc3[nH]nc(N)c23)cc1 [Compound 194]	< 100 nM	100 to 1000 nM	
N#Cc1c(-c2ccc(O)cc2F)nc2[nH]nc(N)c2c1-c1ccc(C2CCNCC2)cc1 [Compound 195]	< 100 nM	1000 to 10000 nM	
N#Cc1c(-c2ccc(O)cc2F)nc2[nH]nc(-c3cccs3)c2c1-c1ccc(N2CCNCC2)cc1 [Compound 196]	1000 to 10000 nM	100 to 1000 nM	
N#Cc1c(-c2ccc(O)cc2F)nc2[nH]nc(-c3ccco3)c2c1-c1ccc(N2CCNCC2)cc1 [Compound 197]	< 100 nM	100 to 1000 nM	
COc1ccc(-c2n[nH]c3nc(-c4ccc(O)cc4F)c(C#N)c(-c4ccc(N5CCNCC5)cc4)c23)cc1 [Compound 198]	< 100 nM	100 to 1000 nM	
N#Cc1c(-c2cc(Cl)c(O)cc2F)nc2[nH]nc(N)c2c1-c1ccc(N2CCNCC2)cc1 [Compound 199]	< 100 nM	> 10000 nM	
N#Cc1c(-c2ccc(O)cc2F)nc2[nH]nc(N)c2c1-c1ccc(N2CCC(N3CCCC3)CC2)cc1 [Compound 200]	< 100 nM	100 to 1000 nM	
N#Cc1c(-c2ccc(O)cc2F)nc2[nH]nc(-c3ccncc3)c2c1-c1ccc(N2CCNCC2)cc1 [Compound 201]	< 100 nM	> 10000 nM	
COc1cc(-c2c(C#N)c(-c3ccc(O)cc3F)nc3[nH]nc(N)c23)ccc1N1CCNCC1 [Compound 202]	100 to 1000 nM	> 10000 nM	
N#Cc1c(-c2ccc(O)cc2F)nc2[nH]nc(N)c2c1-c1ccc(OCCCN2CCCCC2)cc1 [Compound 203]	100 to 1000 nM	1000 to 10000 nM	
Cc1n[nH]c2nc(-c3ccc(O)cc3F)c(C#N)c(-c3ccc(N4CCNCC4)s3)c12 [Compound 204]	< 100 nM	100 to 1000 nM	
N#Cc1c(-c2ccc(O)cc2F)nc2[nH]nc(-c3ccccc3)c2c1-c1ccc(N2CCNCC2)cc1 [Compound 206]	< 100 nM	100 to 1000 nM	
Cc1n[nH]c2nc(-c3ccc(NS(C)(=O)=O)cc3F)c(C#N)c(-c3ccc(N4CCNCC4)cc3)c12 [Compound 208]	1000 to 10000 nM	> 10000 nM	
Cc1n[nH]c2nc(-c3ccc(O)cc3F)c(C#N)c(-c3ccc(N4CCNCC4)c([N+](=O)[O-])c3)c12 [Compound 209]	100 to 1000 nM	1000 to 10000 nM	

SMILES	IC50 (ALK kinase)	IC50 (karpas 299 cells; Homo sapiens, KARPAS-299, 72 h)	IC50 (karpas 299 cells; 72 hours)
CN(C)CCOc1ccc(-c2c(C#N)c(-c3ccc(O)cc3F)nc3[nH]nc(N)c23)cc1 [Compound 210]	100 to 1000 nM	1000 to 10000 nM	
N#Cc1c(-c2ccc(O)cc2F)nc2[nH]nc(N)c2c1-c1ccc(OCCCN2CCNCC2)cc1 [Compound 211]	100 to 1000 nM	> 10000 nM	
N#Cc1c(-c2c(F)ccc(F)c2F)nc2[nH]nc(N)c2c1-c1ccc(N2CCNCC2)cc1 [Compound 212]	1000 to 10000 nM	> 10000 nM	
Cc1n[nH]c2nc(-c3ccc(O)cc3F)c(C#N)c(-c3ccc(OCCCN4CCNCC4)cc3)c12 [Compound 213]	< 100 nM	1000 to 10000 nM	
COC(=O)c1c(-c2ccc(O)cc2)nc2[nH]nc(C)c2c1-c1ccc(C)o1 [Compound 215]	< 100 nM	100 to 1000 nM	
Cc1n[nH]c2nc(-c3cc(Cl)ccc3F)c(C#N)c(-c3ccc(N4CCNCC4)cc3)c12 [Compound 217]	1000 to 10000 nM	1000 to 10000 nM	
N#Cc1c(-c2ccc(O)cc2F)nc2[nH]nc(-c3ccc(F)cc3)c2c1-c1ccc(N2CCNCC2)cc1 [Compound 218]	< 100 nM	1000 to 10000 nM	
N#Cc1c(-c2ccccc2)nc2[nH]nc(-c3cccs3)c2c1-c1ccc(N2CCNCC2)cc1 [Compound 219]	1000 to 10000 nM	1000 to 10000 nM	
N#Cc1c(-c2c(F)ccc(F)c2F)nc2[nH]nc(-c3cccs3)c2c1-c1ccc(N2CCNCC2)cc1 [Compound 221]	100 to 1000 nM	1000 to 10000 nM	
CNc1ccc(-c2nc3[nH]nc(C)c3c(-c3ccc(N4CCNCC4)cc3)c2C#N)c(F)c1 [Compound 222]	1000 to 10000 nM	> 10000 nM	
CCOC(=O)c1c(-c2ccc(O)cc2)nc2[nH]nc(C)c2c1-c1ccc(C)o1 [Compound 223]	< 100 nM	100 to 1000 nM	
Cc1n[nH]c2nc(-c3ccc(O)cc3F)c(C#N)c(-c3ccc(N4CCNCC4)c(N)c3)c12 [Compound 226]	100 to 1000 nM	1000 to 10000 nM	
Cc1n[nH]c2nc(-c3c(F)ccc(Cl)c3F)c(C#N)c(-c3ccc(N4CCNCC4)cc3)c12 [Compound 228]	100 to 1000 nM	1000 to 10000 nM	
CC(C)(C)c1n[nH]c2nc(-c3ccc(O)cc3F)c(C#N)c(-c3ccc(N4CCNCC4)cc3)c12 [Compound 230]	100 to 1000 nM	1000 to 10000 nM	
N#Cc1c(-c2cccc(O)c2)nc2[nH]nc(-c3cccs3)c2c1-c1ccc(N2CCNCC2)cc1 [Compound 231]	1000 to 10000 nM	1000 to 10000 nM	
N#Cc1c(-c2cc3cc[nH]c3cc2F)nc2[nH]nc(N)c2c1-c1ccc(N2CCNCC2)cc1 [Compound 233]	100 to 1000 nM	> 10000 nM	

The next lines start with the values.

IC50 (ALK kinase)	IC50 (karpas 299 cells; Homo sapiens, KARPAS-299, 72 h)	IC50 (karpas 299 cells; 72 hours)	SMILES
100 to 1000 nM	1000 to 10000 nM		Cc1n[nH]c2nc(-c3cc4cc[nH]c4cc3F)c(C#N)c(-c3ccc(N4CCNCC4)cc3)c12 [Compound 234]
100 to 1000 nM	1000 to 10000 nM		N#Cc1c(-c2ccc(O)cc2F)nc2[nH]nc(-c3ccc([N+](=O)[O-])cc3)c2c1-c1ccc(N2CCNCC2)cc1 [Compound 235]
< 100 nM	100 to 1000 nM		N#Cc1c(-c2ccc(O)cc2F)nc2[nH]nc(-c3ccc(-c4ccccc4)cc3)c2c1-c1ccc(N2CCNCC2)cc1 [Compound 236]
100 to 1000 nM	1000 to 10000 nM		Cc1n[nH]c2nc(-c3ccc(O)cc3F)c(S(C)(=O)=O)c(-c3ccc(N4CCNCC4)cc3)c12 [Compound 238]
100 to 1000 nM	100 to 1000 nM		Cc1n[nH]c2nc(-c3ccc(OC(=O)c4ccccc4)cc3F)c(C#N)c(-c3ccc(N4CCNCC4)cc3)c12 [Compound 239]
100 to 1000 nM	1000 to 10000 nM		N#Cc1c(-c2c(F)ccc(F)c2F)nc2[nH]nc(-c3ccco3)c2c1-c1ccc(N2CCNCC2)cc1 [Compound 242]
< 100 nM	100 to 1000 nM		N#Cc1c(-c2ccc(O)cc2F)nc2[nH]nc(-c3ccc(C(F)(F)F)cc3)c2c1-c1ccc(N2CCNCC2)cc1 [Compound 244]
100 to 1000 nM	1000 to 10000 nM		CCOC(=O)c1c(-c2c(F)ccc(F)c2F)nc2[nH]nc(-c3cccs3)c2c1-c1ccc(N2CCNCC2)cc1 [Compound 245]
100 to 1000 nM		1000 to 10000 nM	N#Cc1c(-c2cccc(O)c2)nc2[nH]nc(-c3cccs3)c2c1-c1ccc(N2CCNCC2)cc1 [Compound 247]
1000 to 10000 nM	1000 to 10000 nM		Cc1c(C#N)c(-c2c(F)ccc(F)c2F)nc2[nH]nc(-c3ccc(N4CCNCC4)cc3)c12 [Compound 248]
< 100 nM	100 to 1000 nM		Cc1cc(-c2nc3[nH]nc(-c4ccco4)c3c(-c3ccc(N4CCNCC4)cc3)c2C#N)ccc1O [Compound 251]
100 to 1000 nM	1000 to 10000 nM		CCOC(=O)c1c(-c2c(F)ccc(F)c2F)nc2[nH]nc(C)c2c1-c1ccc(N2CCNCC2)cc1 [Compound 252]
100 to 1000 nM	1000 to 10000 nM		Cc1n[nH]c2nc(-c3c(F)ccc(F)c3F)c(C#N)c(-c3ccc(N4CCC(N)CC4)o3)c12 [Compound 253]
100 to 1000 nM	1000 to 10000 nM		Cc1n[nH]c2nc(-c3ccc(O)cc3Cl)c(C#N)c(-c3ccc(N4CCNCC4)cc3)c12 [Compound 254]
1000 to 10000 nM	1000 to 10000 nM		N#Cc1c(-c2c(F)ccc(F)c2F)nc2[nH]nc(-c3ccco3)c2c1-c1ccc(N2CCOCC2)o1 [Compound 255]
< 100 nM	1000 to 10000 nM		N#Cc1c(-c2ccc(O)cc2Cl)nc2[nH]nc(-c3ccc(N4CCOCC4)cc3)c2c1-c1ccc(N2CCNCC2)cc1 [Compound 256]
100 to 1000 nM	1000 to 10000 nM		Cc1n[nH]c2nc(-c3ccc(O)cc3F)c(C#N)cc12 [Compound 260]
100 to 1000 nM	> 10000 nM		Cc1n[nH]c2nc(-c3ccc(O)cc3F)c(C#N)c(-c3ccc(-c4ccc(S(N)(=O)=O)cc4)o3)c12 [Compound 270]
100 to 1000 nM	> 10000 nM		N#Cc1c(-c2ccc(O)cc2F)nc2[nH]nc(N)c2c1-c1ccc(-c2ccc(S(N)(=O)=O)cc2)o1 [Compound 271]
1000 to 10000 nM	1000 to 10000 nM		N#Cc1c(-c2ccoc2)nc2[nH]nc(-c3ccco3)c2c1-c1ccc(N2CCNCC2)cc1 [Compound 272]
